Here are results for six molecules from patent US20240002326A1, “COMPOUNDS AND USE THEREOF IN METHODS OF TREATMENT” (The University of Queensland, priority 2016, published 2024).

One series addresses SOX18[109] HMG fragment (Mus musculus (Mouse), UniProt P43680). Put plainly: FP DNA-binding competition assay, SOX18[109] HMG fragment. The settings on record: SOX18/DNA binding; for remaining activity at 50 µM: read-out: FP bound fraction (%) 50 μM; for remaining activity at 200 µM: read-out: FP bound fraction (%) 200 μM. As to the method:
Mouse SOX HMG fragments. The HMG domains of mouse SOX2 (Group B), SOX11 (Group C), SOX6 (Group D), SOX9 (Group E), SOX18 (Group F) and SOX15 (Group G) were BP cloned from cDNA templates (IMAGE cDNA clone IDs: Sox18: 3967084; Sox9: 5354229; Sox4: 6822618) into a pDONRTM221 pENTRY vector, sequenced and recombined into a pETG20A or a pHisMBP expression plasmid using Gateway®LR Technology (Ng et al., 2012). Constructs were transformed into Escherichia coli BL21(DE3) cells (Luria-Bertani, 100 μg/ml Ampicillin).
The DNA-binding competition assay was performed in black 384-well plates, with mouse full length SOX18, or SOX-HMG fragments. All experiments were performed using a fluorescently-labelled Prox1-DNA element. Controls consisted of free labelled DNA (low FP milli-Polarization index, mP), labelled DNA in presence of protein (negative control, high mP), and labelled DNA and protein in presence of competing excess of unlabelled DNA (positive control, low mP)
The DNA-binding competition assay was performed in 25 uL, in black 384-well plates, using either 30 mM HEPES (N-2-Hydroxyethylpiperazine-N′-2-Ethanesulfonic Acid) (pH 7.5, with 100 mM KCl, 40 mM NaCl, 10 mM NH4OAc, […], 2 mM MgCl2, 0.5 mM EDTA, 0.01% NP-40) for mouse full length SOX18, or Tris-NaCl (10 mM Tris pH 8.0 and 100 mM NaCl) for SOX-HMG fragments. All experiments were performed using a 40 bp double-stranded Prox1-DNA element with 5′ fluorescein amidite (FAM) label (Sigma Proligo or InVitrogen). Optimum binding levels were obtained at 200 nM of mouse full length SOX18 and 60 nM of SOX-HMG fragment, in presence of 5 nM labelled DNA. Controls consisted of free labelled DNA (low FP milli-Polarization index, mP), labelled DNA in presence of protein (negative control, high mP), and labelled DNA and protein in presence of 400 time competing excess of unlabelled DNA (positive control, low mP). Depending on compound, final DMSO concentrations ranged from 2 to 3.33% v/v. After mixing protein, DNA probe and compound, plates were sealed and briskly agitated in the dark for 5 minutes at room temperature, 10 minutes at 37° C., and 30 minutes at room temperature, before reading fluorescence polarization on a Tecan M1000Pro (λexc=485 nm, λem=525 nm). All experiments were performed in triplicates.
In order to pinpoint the possible binding site of the small molecules, the FP assays were repeated with a shorter, DNA-binding centred protein fragment. The DNA binding domain of SOX TFs consists of the […] amino acid long High Mobility Group (HMG) box. The 109 amino-acid long SOX18 fragment (SOX18[109]) corresponds to residues 69-177 (numbering by mouse SOX18), which includes the HMG box (residues 78-149) and N- and C-terminal flanking sequences of 9 and 28 amino-acids, respectively.

The nature of series [1]: Cytotoxicity assay (Alamar blue), HEK293. It is filed as cell-based. The conditions noted are these: human, HEK293 cells; HEK293, 24 h. As to the method:
(§1) Cell toxicity was determined using Alamar blue, as previously described (McMillian et al., 2002). COS-7 cells were seeded as 7000 cells per well in black wall clear bottom 96-well plates in DMEM medium (Life Technologies Australia) with 10% FBS. HepG2 and HEK293 cell lines, from ATCC, were seeded as 5000 cells per well in black wall clear bottom 384-well cell culture plates in DMEM with 1% FBS. Cells were cultured for 24 h at 37° C., 5% CO2. A serial dilution of compounds was added, with a final DMSO concentration adjusted to 0.5% v/v. Cells were incubated for another 24 h. 1 Triton X-100 was used as negative control, and 0.5% DMSO as positive control. 5 μM Alamar blue was added to each well and fluorescence was measured (λexc=560 nm, λem=590 nm) after 2 h incubation at 37° C. Data were analysed using Prism software.
In general terms: The colour change of resazurin is a common sign of viable cells or microbes.

The next series has as its target SOX18-SOX18 homodimer (Homo sapiens (Human), UniProt P35713). The series is described as follows: ALPHAScreen SOX18-SOX18 homodimerization. It is filed as binding. The settings on record: 5 uM. The protocol:
(§2) ALPHAScreen was performed as previously described (Sierecki et al., 2014, Sierecki et al., 2013), using the cMyc detection kit and Proxiplate-384 Plus plates (PerkinElmer). The LTE lysate co-expressing the proteins of interest was diluted in buffer A (25 mM HEPES, 50 mM NaCl). For the assay, 12.5 μL (0.4 μg) of Anti-cMyc coated Acceptor Beads in buffer B (25 mM HEPES, 50 mM NaCl, 0.001% NP40, 0.001% casein) were aliquoted into each well. This was followed by the addition of 2 μL of diluted sample, at different concentration, and 2 μL of biotin labeled GFP-Nanotrap in buffer A. The plates were incubated for 45 min at room temperature, then adding 2 μL (0.4 μg) of streptavidin-coated Donor Beads diluted in buffer A, and incubation in the dark for 45 min at room temperature. The ALPHAScreen signal was measured on an Envision Plate Reader (PerkinElmer), using manufacturer's recommended settings (λexc=680/30 nm for 0.18 s, λem=570/100 nm after 37 ms). The resulting bell-shaped curve is an indication of a positive interaction, while a flat line reflects a lack of interaction between the proteins. The measurement of each protein pair was repeated in triplicate.
(§3) I is the highest signal level (top of the hook effect curve) and Ineg is the lowest (background) signal level. The signals were normalized to the Iref signal obtained for the strongest interaction. […] Percentage of interaction was calculated as: […]
(§4) The ALPHA-Screen Assay was performed as previously described (Sierecki et al. 2014), using the cMyc detection kit and Proxiplate-384 Plus plates (PerkinElmer). A serial dilution of each sample was measured. The LTE lysate co-expressing the proteins of interest was diluted in buffer A (25 mM HEPES, 50 mM NaCl). For the assay, 12.5 μL (0.4 μg) of Anti-cMyc coated Acceptor Beads in buffer B (25 mM HEPES, 50 mM NaCl, 0.001% NP40, casein) were aliquoted into each well. This was followed by the addition of 2 μL of diluted sample and 2 μL of biotin labeled GFP-Nanotrap in buffer A. The plate was incubated for 45 min at RT. Afterward, 2 μL (0.4 μg) of Streptavidin coated Donor Beads diluted in buffer A, were added, followed by incubation in the dark for 45 min at RT. The ALPHA-Screen signal was obtained on an Envision Multilabel Plate Reader (PerkinElmer), using the manufacturer's recommended settings (excitation: 680/30 nm for 0.18 s, emission: 570/100 nm after 37 ms). The resulting bell-shaped curve is an indication of a positive interaction, while a flat line reflects a lack of interaction between the proteins. The measurement of each protein pair was repeated a minimum of three times using separate plates. The Binding Index was calculated as: BI=[(I−I_neg)/(I_ref−I_neg)]×100
For PPI disruption assay, protein pairs expressed in LTE were incubated for 1 h with 100 μM Sm4 or DMSO alone (0.7% DMSO final). 100 μM Sm4 or DMSO was also added to buffer B. PPI disruption was calculated as: (1−I_Sm4/I_DMSO)×100.
For IC50 determination, the assay was identical but a dilution range of Sm4 was used (0.3 to 300 μM). Percentage of interaction was calculated as: I_Sm4/1 DMSO×100. Data from at least 3 independent experiments were fitted in GraphPad Prism (RRID: SCR_007370) version 6.0 using 3-parameter non-linear regression.

Series [2] in a line: Cytotoxicity assay (Alamar blue), HepG2. The settings on record: human, HepG2 cells; HepG2, 24 h. In kind it is cell-based.
Another series deals with HEK293. Put plainly: Cytotoxicity assay (Alamar blue), HEK293. It is filed as cell-based. The conditions noted are these: HEK293, 24 h. As to the method: as §1
The subject of the next series is HepG2. The series is described as follows: Cytotoxicity assay (Alamar blue), HepG2. It is filed as cell-based. The settings on record: HepG2, 24 h.
For a further series, the target named is SOX18-RBPJ interaction (Homo sapiens (Human), UniProt P35713). Put plainly: ALPHAScreen SOX18-RBPJ protein-protein interaction. In kind it is binding. The conditions noted are these: 5 μM.
SOX18-RBPJ interaction, sequence (P35713 whole entry): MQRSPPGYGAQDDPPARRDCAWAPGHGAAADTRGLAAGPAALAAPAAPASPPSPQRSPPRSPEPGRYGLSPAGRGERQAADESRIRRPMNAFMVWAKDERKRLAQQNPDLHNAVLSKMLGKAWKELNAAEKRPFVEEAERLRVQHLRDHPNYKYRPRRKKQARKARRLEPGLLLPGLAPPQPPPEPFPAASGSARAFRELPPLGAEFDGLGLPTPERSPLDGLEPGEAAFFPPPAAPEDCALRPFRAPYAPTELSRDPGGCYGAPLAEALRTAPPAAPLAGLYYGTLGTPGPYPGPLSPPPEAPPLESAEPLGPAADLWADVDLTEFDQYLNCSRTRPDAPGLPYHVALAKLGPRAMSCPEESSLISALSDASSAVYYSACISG
Source text: Proteins were genetically encoded with enhanced GFP (GFP), mCherry and cMyc (myc) tags, and cloned into cell free expression Gateway destination vectors: N-terminal GFP tagged (pCellFree_G03), N-terminal Cherry-cMyc (pCellFree_G07) and C-terminal Cherry-cMyc tagged (pCellFree_G08) (Gagoski et al., 2015). Human RBPJ (BC020780) and MEF2C (BC026341) Open Reading Frames (ORFs) were sourced from the Human ORFeome collection, version 1.1 and 5.1, and the Human Orfeome collaboration OCAA collection (Open Biosystems), as previously described (Sierecki et al., 2013) and cloned at the ARVEC facility, UQ Diamantina Institute. The entry clones pDONOR223 or pENTR201 vectors were exchanged with the ccdB gene in the expression plasmid by LR recombination (Life Technologies, Australia). The full-length human SOX18 gene was synthesized and the transfer to vectors was realized using Gateway PCR cloning. Translation competent Leishmania tarentolae extract (LTE) was prepared as previously described (Kovtun et al., 2011, Mureev et al., 2009). Protein pairs were co-expressed by adding 30 nM of GFP template plasmid and 60 nM of Cherry template plasmid to LTE and incubating for 3 hours at 27° C.
ALPHAScreen was performed as previously described (Sierecki et al., 2014, Sierecki et al., 2013). […] Percentage of interaction was calculated as: (I_cpd/I_DMSO)×100 from 3 independent experiments.
as §2, §3
as §4, with “The measurement of each protein pair was repeated a minimum of three times using separate plates. The Binding Index was calculated as: BI=[(I−I_neg)/(I_ref−I_neg)]×100” left out
(In general: Bead proximity is the source of the signal in Alpha formats.)

A value given as a limit tells only on which side of the number the result lay.

SOX18[109] HMG fragment, sequence (P43680 69-177): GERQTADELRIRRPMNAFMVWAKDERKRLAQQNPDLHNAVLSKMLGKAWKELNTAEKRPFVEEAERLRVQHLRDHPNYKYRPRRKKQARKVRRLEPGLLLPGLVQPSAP
SOX18-SOX18 homodimer, sequence (P35713 whole entry): as the sequence (P35713 whole entry) above

As for `COc1cc(/C=C\c2ccccc2)cc(OC)c1OC` [Sm37, (Z)-1,2,3-trimethoxy-5-styrylbenzene], the remaining activity at 50 µM at SOX18[109] HMG fragment was found to be 98.2 ± 7.4%. The remaining activity at 200 µM at SOX18[109] HMG fragment is 104 ± 10.4%. The CC50 at 24 h in series [1] and in series [2] was above 100 µM throughout. Also, the “inhibitory activity in respect of SOX18-SOX18 homodimerization” value (shortened to “inhibitory activity”) against SOX18-SOX18 homodimer is recorded as “some inhibitory activity”.
Regarding `COc1cc(Cl)cc(/C=C/c2ccc3ccccc3c2)c1C(=O)O` [Sm31, (E)-4-chloro-2-methoxy-6-(2-(naphthalen-2-yl)vinyl)benzoic acid], on SOX18[109] HMG fragment, the remaining activity at 50 µM was 97.7 ± 5.9% and the remaining activity at 200 µM was determined as 91.7 ± 2.1%. In series [1], half-maximal cytotoxicity (CC50 at 24 h) was put at 92.7 µM. For the same molecule, on SOX18-SOX18 homodimer, the “inhibitory activity” value is “some inhibitory activity”. Besides, in series [2], the 50% cytotoxic concentration (CC50) (in general, the concentration giving 50% cytotoxicity) at 24 h was above 100 µM.
On to `O=C(O)c1c(O)cc(Cl)cc1CCc1ccc2ccccc2c1` [Sm33, (E)-4-chloro-2-hydroxy-6-(2-(naphthalen-2-yl)ethyl)benzoic acid], for which, on SOX18[109] HMG fragment, the “FP bound fraction (%) 50 μM” value came out at 50.1 ± 54.6% and the “FP bound fraction (%) 200 μM” value was 9.9 ± 2.3%. The same molecule displayed a CC50 in the series with HEK293 of 33.4 µM. Further, in the series on HepG2, the CC50 came to 34.5 µM.
Take `CCN(CC)C(=O)c1c(O)cccc1CCc1ccc2ccccc2c1` [Sm18, N,N-diethyl-2-hydroxy-6-(2-(naphthalen-2-yl)ethyl)benzamide]: at SOX18[109] HMG fragment, the remaining activity at 50 µM came out at 98.7 ± 5%. For the same molecule, the remaining activity at 200 µM on SOX18[109] HMG fragment worked out at 107 ± 21.3%. Also, the CC50 at 24 h in series [1] was found to be 38.7 µM; in series [2], 28 µM. At SOX18-RBPJ interaction, the “SOX18-RBPJ protein-protein binding inhibition at 5 μM” value is “highly active”.
On to `COc1cc(O)c(C(=O)O)c(C=Cc2ccc3ccccc3c2)c1` (mixture of isomers) [Sm28, (E/Z)-2-hydroxy-4-methoxy-6-(2-(naphthalen-2-yl)vinyl)benzoic acid], for which, on SOX18[109] HMG fragment, the “FP bound fraction (%) 50 μM” value is recorded as 76.3 ± 2.3% and the “FP bound fraction (%) 200 μM” value worked out at 19.3 ± 8.4%. For the same molecule, the CC50 in the series with HEK293 was 65.1 µM. The half-maximal cytotoxic concentration (CC50) with HepG2 worked out at 78.9 µM.
`COc1cc(/C=C\c2ccc3ccccc3c2)cc(OC)c1OC` [Sm41, (Z)-2-(3,4,5-trimethoxystyryl)naphthalene]: the remaining activity at 50 µM on SOX18[109] HMG fragment came to 100 ± 10%. The remaining activity at 200 µM on SOX18[109] HMG fragment turned out to be 90.2 ± 46.1%. Also, the CC50 at 24 h in series [1] and in series [2] was above 100 µM in each case. Further, the “inhibitory activity” value at SOX18-SOX18 homodimer is “some inhibitory activity”.
